Experiments:
[1] = system: AID mRNA in mouse B cell clone CH12F3-2; test: Cytokine-induced AID (23C9) mRNA expression, Northern blotting; format: cell-based; details: cycloheximide 200 ng/ml, 12 hours, IL-4, TGF-β, CD40L
Description: The degree of enhanced expression of the gene coding for a novel protein 23C9 in mouse B cell clone CH12F3-2 stimulated with IL-4, TGF-β and CD40L was analyzed according to the standard method (L. Sambrook, E. F., Tom Maniatis., Second edition, Ed. Molecular Cloning (Nolan, C., Ed.), Cold Spring Harbour, 1989) by Northern blotting.
Mouse B cell clone CH12F3-2 was cultured in the presence of one of the following regents for 12 hours. • (1) IL-4, TGF-β and CD40L only. • (2) Cycloheximide which is a protein synthesis inhibitor (200 ng/ml), only • (3) IL-4, TGF-β and CD40L as well as Cycloheximide (200 ng/ml)
Northern blotting was conducted against mRNA (10 μg for each group) obtained in the same manner as previously reported (Nucleic Acid Res., 26:911-918, 1998) from each group of treated cells using a radio-labeled cDNA fragment (1,020 bp) coding for a novel protein 23C9, obtained in the above Example, according to the standard method (L. Sambrook, E. F., Tom Maniatis., Second edition, Ed. Molecular Cloning (Nolan, C., Ed.), Cold Spring Harbour, 1989).
As a control experiment, Northern blotting was conducted for mRNA derived from B cell clone CH12F3-2 cultured without any one of the above cytokines, or cycloheximide.
The amount of mRNA to be electrophoresed was adjusted using the amount of mRNA for glyceraldehyde-3-phosphate dehydrogenase (GAPDH) as an index. […]

[2] = system: mouse B cell clone CH12F3-2; test: Production of looped-out circular DNA by class switch recombination (PCR, Southern hybridization); format: cell-based; details: cycloheximide 200 ng/ml, 6 hours, stimulation with IL-4, TGF-β, CD40L
Description: CH12F3-2 B cells, either stimulated by IL-4, TGF-β, and CD40L or unstimulated, were cultured for 6 hours in the presence or absence of cycloheximide (200 ng/ml) which is a protein synthesis inhibitor, respectively. Genomic DNA was extracted from each cell, and PCR was conducted with the DNA as a template following standard methods to amplify circular DNA including an Sμ sequence and an Sα sequence. PCR was conducted using pairs of primers, αF1 and […], or αF1 and […].
As a control, genomic DNA encoding glyceraldehyde-3-phosphate dehydrogenase (GAPDH) was amplified by PCR.
The PCR products were subjected to gel electrophoresis and ethidium bromide staining. FIG. 1(a) and FIG. 2(a) show the results.
To confirm the presence or absence of the amplification of a circular DNA including the looped-out S region, Southern hybridization was conducted against the PCR products using a mouse Sa region gene as a hybridization probe, according to standard methods (L. Sambrook E. F., Tom Maniatis., Second edition, Ed. Molecular Cloning (Nolan, C., Ed.) Cold Spring Harbor, 1989). A 1,155 bp DNA fragment obtained by digesting 10 kb EcoRI cleaved fragment IgH703 with Hind III and Earl was used as an Sα gene (Genbank #D11468, DNA No. 1993-3148) (J, Biol. Chem., Vol. 268, p. 4651-4665). FIGS. 1(b) and 2(b) show the results.

AID protein = target: T1, AID protein (Mus musculus, UniProt Q9WVE0); test: Inhibition of the cytidine deaminase activity of the AID-GST fusion protein; format: biochemical; details: for inhibition of the cytidine deaminase activity of AID protein: 20 mM printed for 1,10-o-phenanthroline, both isomers tested 0 to 20 mM; for inhibition of the cytidine deaminase activity of AID protein (in words): zinc chelator and inactive isomer
T1 construct: a full length AID cDNA was expressed as a fusion protein with glutathione S-transferase (GST); made in house; host or cells: E. coli DH5alpha
T1 sequence (Q9WVE0 whole entry, the tested form may be a part): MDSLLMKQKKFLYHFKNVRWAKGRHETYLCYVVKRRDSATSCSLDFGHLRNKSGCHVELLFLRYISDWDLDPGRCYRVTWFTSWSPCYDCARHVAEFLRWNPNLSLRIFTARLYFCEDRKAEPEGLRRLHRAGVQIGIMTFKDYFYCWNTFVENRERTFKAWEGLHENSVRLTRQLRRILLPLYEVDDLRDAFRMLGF
Description: The purified AID-GST fusion protein prepared in the above (2, 4, 6, 8, 10, 20, 40, 60, 100, 200, 300, 400, and 600 ng) was incubated in the buffer (pH 7.5, the total amount 10 μl) containing 45 mM Tris with 3.3 μCi [^3H] deoxycytidine (24.8 Ci/mmol, DuPont) and 250 μM cytidine for 2 to 4 hours. The reaction was terminated by adding deoxycytidine (2 μl of 10 μg/ml) and deoxyuridine (2 μl of 10 μg/ml). Insoluble substances were removed by centrifugation, and the reaction mixture (4 μl) was subjected to the polyethylene imine-cellulose thin layer chromatography plate (VWR). The plate was developed in isopropyl alcohol/10% HCl (7:2 v/v). The plate was exposed to ultraviolet light (254 nm) for visualization and bands corresponding to deoxycytidine and deoxyuridine were collected, and added to Ultima Gold scintillation solution to be quantified by liquid scintillation photometer (Packard)

| SMILES | induction of AID mRNA expression by cytokines [1] | production of looped-out DNA containing the Sα sequence with class switch recombination [2] | inhibition of the cytidine deaminase activity of AID protein (AID protein) | inhibition of the cytidine deaminase activity of AID protein (in words) (AID protein) |
| --- | --- | --- | --- | --- |
| C[C@@H]1C[C@@H]([C@H](O)CC2CC(=O)NC(=O)C2)C(=O)[C@@H](C)C1 [cycloheximide] | can be inhibited | inhibited |  |  |
| c1cnc2c(c1)ccc1cccnc12 [1,10-o-phenanthroline] |  |  | about 91% | inhibits |
| c1cnc2c(c1)ccc1ncccc12 [1,7-o-phenanthroline] |  |  | about 13% | weak inhibition |
